Values of other authors as cited in article PMC6838683, “Discovery of Human Signaling Systems: Pairing Peptides to G Protein-Coupled Receptors” (Cell, 2019).
Like-named read-outs stand apart in the source and are kept apart here. No end group written: not given here.

Molecular target: human GPCRs
Set-up: method as in Guide to Pharmacology database
Conditions: cited from earlier work
From the text: Supplement mmc1.xlsx, sheet "HumanGPCRLigands" | column: pKi_value; pKd_value; pEC50_value; pIC50_value

[1] = receptor gasr_human (CCKBR, P32239), max reported value, ref Guide to Pharmacology database
[2] = receptor CCR2 (ccr2_human, P41597), max reported value, ref Guide to Pharmacology database
[3] = receptor CCR3 (ccr3_human, P51677), max reported value, ref Guide to Pharmacology database
[4] = receptor CCR5 (ccr5_human, P51681), max reported value, ref Guide to Pharmacology database
[5] = receptor CCR1 (ccr1_human, P32246), max reported value, ref Guide to Pharmacology database
[6] = receptor CCR7 (ccr7_human, P32248), max reported value, ref Guide to Pharmacology database
[7] = receptor SSTR1 (ssr1_human, P30872), max reported value, ref Guide to Pharmacology database
[8] = receptor SSTR2 (ssr2_human, P30874), max reported value, ref Guide to Pharmacology database
[9] = receptor SSTR3 (ssr3_human, P32745), max reported value, ref Guide to Pharmacology database
[10] = receptor SSTR4 (ssr4_human, P31391), max reported value, ref Guide to Pharmacology database
[11] = receptor SSTR5 (ssr5_human, P35346), max reported value, ref Guide to Pharmacology database
[12] = receptor CXCR1 (cxcr1_human, P25024), max reported value, ref Guide to Pharmacology database
[13] = receptor CXCR2 (cxcr2_human, P25025), max reported value, ref Guide to Pharmacology database
[14] = receptor CXCR3 (cxcr3_human, P49682), max reported value, ref Guide to Pharmacology database
[15] = receptor vipr1_human (VIPR1, P32241), max reported value, ref Guide to Pharmacology database
[16] = receptor gnrhr_human (GNRHR, P30968), max reported value, ref Guide to Pharmacology database
[17] = receptor RXFP4 (rl3r2_human, Q8TDU9), max reported value, ref Guide to Pharmacology database
[18] = receptor pacr_human (ADCYAP1R1, P41586), max reported value, ref Guide to Pharmacology database
[19] = receptor vipr2_human (VIPR2, P41587), max reported value, ref Guide to Pharmacology database
[20] = receptor pth2r_human (PTH2R, P49190), max reported value, ref Guide to Pharmacology database
[21] = receptor OPRD1 (oprd_human, P41143), max reported value, ref Guide to Pharmacology database
[22] = receptor OPRM1 (oprm_human, P35372), max reported value, ref Guide to Pharmacology database
[23] = receptor apj_human (APLNR, P35414), max reported value, ref Guide to Pharmacology database
[24] = receptor mrgx1_human (MRGPRX1), Class A orphans, max reported value, ref Guide to Pharmacology database
[25] = receptor OPRK1 (oprk_human, P41145), max reported value, ref Guide to Pharmacology database

In the case of `NC(=O)CC[C@@H]1NC(=O)[C@H](Cc2ccccc2)NC(=O)[C@H](Cc2ccc(O)cc2)NC(=O)[C@@H](N)CSSC[C@@H](C(=O)N2CCC[C@H]2C(=O)N[C@@H](CCCN=C(N)N)C(=O)NCC(N)=O)NC(=O)[C@H](CC(N)=O)NC1=O` [vasopressin], the pKi_value (receptor AVPR1A (v1ar_human, P37288), max reported value, ref Guide to Pharmacology database) is listed as 9.3, the pKi_value (receptor AVPR1B (v1br_human, P47901), max reported value, ref Guide to Pharmacology database) is listed as 9.5 and the pKi_value (receptor AVPR2 (v2r_human, P30518), max reported value, ref Guide to Pharmacology database) is listed as 9.1. The pKi_value (receptor OXTR (oxyr_human, P30559), max reported value, ref Guide to Pharmacology database) was 9.3.
In the case of `O=C(O)CCC(=O)C(=O)O` [α-ketoglutaric acid], the pEC50_value (receptor oxgr1_human (OXGR1), Oxoglutarate receptors, max reported value, ref Guide to Pharmacology database) is given as 4.5.
For `C[C@@H](O)CC(=O)O` [β-D-hydroxybutyric acid], the pEC50_value (receptor hcar2_human (HCAR2), Hydroxycarboxylic acid receptors, max reported value, ref Guide to Pharmacology database) is listed as 3.1.
For `NCCC(=O)O` [β-alanine], the pEC50_value (receptor mrgrd_human (MRGPRD), Class A orphans, max reported value, ref Guide to Pharmacology database) is listed as 4.8.
For `NCCc1ccccc1` [β-phenylethylamine], the pEC50_value (receptor taar1_human (TAAR1, Q96RJ0), max reported value, ref Guide to Pharmacology database) is given as 7.
For (-)-adrenaline, the pKi_value (receptor ada1a_human (ADRA1A, P35348), max reported value, ref Guide to Pharmacology database) is listed as 6.5, the pKi_value (receptor ada1b_human (ADRA1B, P35368), max reported value, ref Guide to Pharmacology database) is listed as 6.5 and the pKi_value (receptor ada1d_human (ADRA1D, P25100), max reported value, ref Guide to Pharmacology database) is listed as 7.2. The pKi_value (receptor ada2a_human (ADRA2A, P08913), max reported value, ref Guide to Pharmacology database) was 7.4, the pKi_value (receptor ada2b_human (ADRA2B, P18089), max reported value, ref Guide to Pharmacology database) was 5.2 and the pKi_value (receptor ada2c_human (ADRA2C, P18825), max reported value, ref Guide to Pharmacology database) was 5.8. The pKi_value (receptor adrb1_human (ADRB1, P08588), max reported value, ref Guide to Pharmacology database) was 6, the pKi_value (receptor adrb2_human (ADRB2, P07550), max reported value, ref Guide to Pharmacology database) was 6.2 and the pKi_value (receptor adrb3_human (ADRB3, P13945), max reported value, ref Guide to Pharmacology database) was 3.9.
For “Big endothelin-1 (CSCSSLMDKECVYFCHLDIIWVNTPEHVVPYGLGSPRS; not fully specified; ends and bridges not checked; UniProt P05305 53-90, looked up)”, the pIC50_value (receptor ednra_human (EDNRA, P25101), max reported value, ref Guide to Pharmacology database) is listed as 8.5.
In the case of CCK-4, the pIC50_value [1] is listed as 7.5.
In the case of CCK-8, the pIC50_value [1] is listed as 10.
For CCL2, the pIC50_value [2] is given as 10.2, the pKi_value [3] is given as 7.8 and the pKi_value [4] is given as 7.5.
For CCL3, the pKi_value [5] is listed as 10.2 and the pKi_value [4] is listed as 8.9.
In the case of CCL5, the pKi_value [5] is given as 8.2, the pKi_value [3] is given as 9.3 and the pKi_value [4] is given as 9.7. The pEC50_value (receptor gpr75_human (GPR75), Class A orphans, max reported value, ref Guide to Pharmacology database) was 9.6.
For CCL7, the pKi_value [5] is listed as 8.1, the pIC50_value [2] is listed as 8.7 and the pKi_value [3] is listed as 9.2. The pKi_value [4] was 7.5.
For CCL11, the pIC50_value [2] is given as 7.7, the pIC50_value [3] is given as 9 and the pKi_value [3] is given as 10. The pIC50_value [4] was 7.7.
For CCL13, the pIC50_value [2] is listed as 8.7 and the pIC50_value [3] is listed as 10.3.
In the case of CCL19, the pIC50_value [6] is listed as 9, the pKd_value [6] is listed as 10 and the pIC50_value (receptor CCRL2 (ccrl2_human, O00421), max reported value, ref Guide to Pharmacology database) is listed as 7.4.
For CCL20, the pIC50_value (receptor CCR6 (ccr6_human, P51684), max reported value, ref Guide to Pharmacology database) is listed as 8.5.
For CCL26, the pIC50_value [2] is given as 8.5 and the pIC50_value [3] is given as 8.9.
In the case of CST-17, the pKi_value [7] is listed as 9.6, the pKi_value [8] is listed as 9.3 and the pKi_value [9] is listed as 9.9. The pKi_value [10] was 9.6 and the pKi_value [11] was 10.2.
For CXCL1, the pKi_value [12] is listed as 6.4 and the pKi_value [13] is listed as 9.7.
For CXCL2, the pIC50_value [13] is listed as 9.1.
In the case of CXCL3, the pIC50_value [13] is given as 9.2.
For CXCL5, the pIC50_value [13] is given as 9.
In the case of CXCL6, the pKi_value [12] is listed as 7 and the pKd_value [13] is listed as 7.
In the case of CXCL8, the pKd_value [12] is listed as 8.1, the pKi_value [12] is listed as 9.5 and the pKi_value [13] is listed as 9.5.
In the case of CXCL9, the pKi_value [14] is listed as 8.3.
For CXCL10, the pKi_value [14] is listed as 9.8.
In the case of CXCL11, the pKi_value [14] is listed as 10.5.
In the case of CXCL13, the pKd_value (receptor CXCR5 (cxcr5_human, P32302), max reported value, ref Guide to Pharmacology database) is given as 7.3.
In the case of GHRH, the pKi_value [15] is given as 6.2.
In the case of GnRH I, the pEC50_value [16] is given as 10, the pIC50_value [16] is given as 8.6 and the pKd_value [16] is given as 8.5. The pKi_value [16] was 8.4.
For “GnRH II (QHWSHGWYPG; ends and bridges not checked; UniProt O43555 24-33, looked up)”, the pIC50_value [16] is given as 7.9.
In the case of “INSL5 (Insulin-like peptide INSL5 B … KESVRLCGLEYIRTVIYICASSRW; Insulin-like peptide INSL5 A … QDLQTLCCTDGCSMTDLSALC; UniProt Q9Y5Q6 23-46; Q9Y5Q6 115-135, looked up)”, the pEC50_value [17] is given as 8.9, the pIC50_value [17] is given as 8.9 and the pKi_value [17] is given as 8.8.
In the case of PACAP-38 [reference compound], the pEC50_value [18] is given as 10.3, the pKi_value [18] is given as 9 and the pEC50_value [15] is given as 9.7. The pKi_value [15] was 8.2 and the pEC50_value [19] was 9.3.
For PTHrP-(1-36), the pIC50_value (receptor pth1r_human (PTH1R, Q03431), max reported value, ref Guide to Pharmacology database) is listed as 6.5 and the pIC50_value [20] is listed as 5.7.
In the case of “PrRP-20 (TPDINPAWYASRGIRPVGRF; not fully specified; ends and bridges not checked; UniProt P81277 34-53, looked up)”, the pKi_value (receptor PRLHR (prlhr_human, P49683), max reported value, ref Guide to Pharmacology database) is listed as 9.6.
In the case of “QRFP43 (QDEGSEATGFLPAAGEKTSGPLGNLAEELNGYSRKKGGFSFRF-NH2; UniProt P83859 91-133, looked up)”, the pEC50_value (receptor QRFPR (qrfpr_human, Q96P65), max reported value, ref Guide to Pharmacology database) is given as 8.6.
In the case of SRIF-14, the pKi_value [7] is listed as 9.5, the pKi_value [8] is listed as 10.5 and the pKi_value [9] is listed as 10. The pKi_value [10] was 9.3 and the pKi_value [11] was 9.9.
In the case of T-kinin (ISRPPGFSPFR), the pKi_value (receptor bkrb1_human (BDKRB1, P46663), max reported value, ref Guide to Pharmacology database) is listed as 5.2.
In the case of TIP39, the pIC50_value [20] is listed as 9.2.
In the case of VIP, the pEC50_value [18] is listed as 7.8, the pIC50_value [18] is listed as 6 and the pKi_value [18] is listed as 6.3. For the same molecule, the pEC50_value [15] was 7.9, the pIC50_value [15] was 8 and the pKi_value [15] was 9. For the same molecule, the pEC50_value [19] was 7.3, the pIC50_value [19] was 8.3 and the pKi_value [19] was 8.7.
In the case of [Leu]enkephalin, the pKi_value [21] is given as 8.7 and the pKi_value [22] is given as 8.1.
In the case of “amylin (KCNTATCATQRLANFLVHSSNNFGAILSSTNVGSNTY; not fully specified; cysteine pairing not given here; UniProt P10997 34-70, looked up)”, the pEC50_value (receptor calcr_human (CALCR), Calcitonin receptors, Class B1 (Secretin), max reported value, ref Guide to Pharmacology database) is listed as 9.2.
In the case of angiotensin II (DRVYIHPF), the pIC50_value (receptor agtr1_human (AGTR1, P30556), max reported value, ref Guide to Pharmacology database) is given as 9.3 and the pKd_value (receptor agtr2_human (AGTR2, P50052), max reported value, ref Guide to Pharmacology database) is given as 10.2.
In the case of apelin-13, the pIC50_value is listed as 9.5.
In the case of apelin-17, the pIC50_value [23] is given as 9.
In the case of “apelin-36 (LVQPRGSRNGPGPWQGGRRKFRRQRPRLSHKGPMPF; not fully specified; UniProt Q9ULZ1 42-77, looked up)”, the pIC50_value [23] is given as 8.6.
In the case of bovine adrenal medulla peptide 8-22, the pEC50_value [24] is listed as 7.8, the pKd_value [24] is listed as 8 and the pKi_value [24] is listed as 7.7.
For calcitonin, the pEC50_value (receptor calcr_human (CALCR, P30988), Calcitonin receptors, max reported value, ref Guide to Pharmacology database) is listed as 11.2.
In the case of corticotrophin-releasing hormone, the pKd_value (receptor crfr1_human (CRHR1, P34998), max reported value, ref Guide to Pharmacology database) is given as 9 and the pKd_value (receptor crfr2_human (CRHR2, Q13324), max reported value, ref Guide to Pharmacology database) is given as 7.4.
In the case of dynorphin A, the pKi_value [21] is given as 7.4, the pKi_value [25] is given as 10.8 and the pKi_value [22] is given as 8.1.
For dynorphin A-(1-8), the pKi_value [21] is given as 8.4, the pKi_value [25] is given as 9.9 and the pKi_value [22] is given as 8.4.
For dynorphin A-(1-13), the pKi_value [21] is listed as 7.8, the pKi_value [25] is listed as 10.7 and the pKi_value [22] is listed as 8.3.
